# Measurements as given in patent publication EP4772530A1, “PEPTIDE TARGETING SOMATOSTATIN RECEPTOR, DRUG CONJUGATE AND USE THEREOF” (Mainline Biosciences (Shanghai) Co., Ltd., priority 2023, dated 2025).
# Values joined by “and” are separate entries in the source; they are usually repeats but may differ in a detail not shown here. Identical values can stand only once. “Also recorded” adds a separate entry of the source.
# Tested on: Human multiple myeloma MM.1S cells
# Assay: EX3.3 in vivo pharmacodynamics, MM.1S subcutaneous xenograft model
# Parameters: species or system CB17 SCID mice
# Conditions: for Tumor Volume (Mean ± SEM): IV, Twice Weekly
# Protocol: Human multiple myeloma MM.1S cells were suspended and cultured in vitro in 1640 medium containing 10% fetal bovine serum, 100 U/mL penicillin, and 100 µg/mL streptomycin in a 5% CO2 incubator at 37°C. The suspended cells were collected by centrifugation twice a week and adherent cells were digested with trypsin-EDTA to prepare a cell suspension for subculture. When the cell saturation was 80%-90% and the cell number reached the requirement, the cells were collected, counted, and inoculated.
# CB17 SCID mice, female, 6-8 weeks old, weighing 18-22 g, provided by Zhejiang Vital River Laboratory Animal Technology Co., Ltd.
# Each mouse was subcutaneously injected with 100 µL of PBS containing 5×10^6 MM.1S cells + 100 µL of Matrigel (final volume: 200 µL) at the axilla of the right forelimb. At 20 days after injection, when the average tumor volume reached 109 mm^3, mice were grouped for dosing (vehicle control,Ixazomib Citrate, and Example 1 treatment groups, with 6 animals per group). The Ixazomib Citrate group was orally administered by gavage (4 mg/kg) twice a week; the vehicle control group (5%DMSO + 95% normal saline) and the Example 1 treatment group (1.75 mg/kg) were slowly intravenously injected for about 30 seconds each time, twice a week.
# The experimental indicators were used to investigate whether tumor growth was inhibited, delayed, or cured. The tumor diameter was measured twice a week using a vernier caliper. The tumor volume was calculated as follows: V = 0.5a×b^2, where a and b were the long and short diameters of the tumor, respectively.
# The anti-tumor efficacy of the drug was evaluated based on TGI (%) or relative tumor proliferation rate T/C (%). TGI (%) was the tumor growth inhibition rate. TGI (%) was calculated as follows: TGI (%)=[(1 -(mean tumor volume at the end of dosing in a certain treatment group - mean tumor volume at the start of dosing in the treatment group))/ (mean tumor volume at the end of dosing in the vehicle control group - mean tumor volume at the start of dosing in the vehicle control group)]× 100%.
# T/C (%) was calculated as follows:T/C (%)= TRTV/ CRTV× 100 %. Based on the results of tumor measurement, the relative tumor volume (RTV) was calculated as follows: RTV = Vt/V0, where V0 was the mean tumor volume measured at the time of grouping (i.e. d0), and Vt was the mean tumor volume at a certain measurement. Data on the same day were taken for TRTV and CRTV.
# Tumor weights were measured at the end of the experiment and T/Cweight was calculated, where Tweight and Cweight were tumor weights in the treatment and vehicle control groups, respectively.
# Statistical analysis, including the mean and standard error (SEM) of tumor volume at each time point in each group (see Table 5-1 in Section 5.2 for specific data), was performed to evaluate differences between groups based on data from the treatment group on Day 18 post-dose at the end of the experiment. A t-test was used for comparison between two groups, and one-way ANOVA was used for comparison among three or more groups. If there was a significant difference in F value, the Games-Howell method was used for testing; if there was no significant difference in F value, the Dunnet (2-sided) method was used for analysis. All data were analyzed using SPSS 17.0.
# [1] = 18 days after the start of dosing, Example 1 1.75 mg/kg IV twice a week
compound,measurement,setting,value
"CC[C@H](C)[C@@H]([C@@H](CC(=O)N1CCC[C@H]1[C@H](OC)[C@@H](C)C(=O)N[C@H](C)[C@@H](O)c1ccccc1)OC)N(C)C(=O)[C@@H](NC(=O)[C@H](C(C)C)N(C)C(=O)OCc1ccc(NC(=O)[C@H](CCCNC(N)=O)NC(=O)[C@@H](NC(=O)CCCCCN2C(=O)CC(SC[C@H](NC(C)=O)C(=O)NCCOCCOCC(=O)N[C@@H](CCCNC(=N)N)C(=O)N[C@@H](CCCNC(=N)N)C(=O)N[C@@H](CC(C)C)C(=O)N[C@@H](Cc3ccccc3)C(=O)N[C@H]3CSSC[C@@H](C(=O)N[C@H](C(=O)N[C@@H](Cc4c[nH]c5ccccc45)C(=O)N[C@@H](CCCNC(=N)N)C(=O)N[C@@H](CC(=O)O)C(N)=O)[C@@H](C)O)NC(=O)[C@H]([C@@H](C)O)NC(=O)[C@H](CCCCN)NC(=O)[C@@H](Cc4c[nH]c5ccccc45)NC(=O)[C@H](Cc4ccc(O)cc4)NC3=O)C2=O)C(C)C)cc1)C(C)C (stereo partly drawn) [Example 1, Cys(MC-Val-Cit-PABC-MMAE)-AEEA-Arg-Arg-Leu-Phe-[Cys-Tyr-D-Trp-Lys-Thr-Cys]-Thr-Trp-Arg-Asp-NH2]",T/C,[1],0.94%
same,TGI,[1],103.59%
same,tumor inhibition compared to the vehicle control group,"18 days after the start of dosing, Example 1 1.75 mg/kg, p= 0.010, 1.75 mg/kg",significant tumor inhibition; also recorded: significant anti-tumor effect
same,Tumor Volume (Mean ± SEM),"Day 4, Example 1 1.75 mg/kg",144 ± 14 mm3
same,Tumor Volume (Mean ± SEM),"Day 7, Example 1 1.75 mg/kg",124 ± 13 mm3
same,Tumor Volume (Mean ± SEM),"Day 11, Example 1 1.75 mg/kg",87 ± 11 mm3
same,Tumor Volume (Mean ± SEM),"Day 14, Example 1 1.75 mg/kg",50 ± 8 mm3
same,Tumor Volume (Mean ± SEM),"Day 18, Example 1 1.75 mg/kg, 1.75 mg/kg",23 mm3 and 23 ± 5 mm3
same,Tumor Volume (Mean ± SEM),"Day 21, Example 1 1.75 mg/kg",12 ± 5 mm3
same,Tumor Volume (Mean ± SEM),"Day 25, Example 1 1.75 mg/kg",0 ± 0 mm3
same,Tumor Volume (Mean ± SEM),"Day 28, Example 1 1.75 mg/kg",0 ± 0 mm3
same,complete response rate,Example 1 1.75 mg/kg,100%
same,complete response,"Example 1 1.75 mg/kg, 6 animals in the group",all achieved a complete response
